Laboratory results from US20160129011A1, “BICYCLO 2,3-BENZODIAZEPINES AND SPIROCYCLICALLY SUBSTITUTED 2,3-BENZODIAZEPINES” (BAYER PHARMA AKTIENGESELLSCHAFT, priority 2013, published 2016).
pIC50: −log10 of the molar value.

Key:
MOLM-13 cells = experiment: Cell proliferation assay (alamarBlue), MOLM-13; format: cell-based; details: acute myeloid leukaemia cell line, 96 h incubation
Description: (§1) In accordance with the invention, the ability of the substances to inhibit cell proliferation was determined. Cell viability was determined by means of the alamarBlue® reagent (Invitrogen) in a Victor X3 Multilabel Reader (Perkin Elmer). The excitation wavelength was 530 nm and the emission wavelength […].
The MOLM-13 cells (DSMZ, ACC 554) were sown at a concentration of 4000 cells/well in 100 μl of growth medium (RPMI1640, 10% FCS) on 96-well microtitre plates.
(§2) The MDA-MB-231 cells (DSMZ, ACC 732) were sown at a concentration of 4000 cells/well in 100 μl of growth medium (DMEM/Ham's F12 medium, 10% FCS) on 96-well microtitre plates. After overnight incubation at 37° C., the fluorescence values (CI values) were determined. Then the plates were treated with various substance dilutions (1E-5 M, 3E-6 M, 1E-6 M, 3E-7 M, 1E-7 M, 3E-8 M, 1E-8 M) and incubated at 37° C. for 72 (MV4-11, LOX-IMVI cells), 96 (MOLM-13, B16F10, […] cells), 120 (MOLP-8, KMS-12-PE cells) or 168 (LAPC-4 cells) hours. Subsequently, the fluorescence values were determined (CO values). For the data analysis, the CI values were subtracted from the CO values and the results were compared between cells which had been treated with various dilutions of the substance or only with buffer solution. This was used to calculate the IC50 values (substance concentration required for 50% inhibition of cell proliferation).
(§3) The substances were examined in the cell lines of Table 1 which, in an exemplary manner, represent the stated indications: […]

B16F10 cells = experiment: Cell proliferation assay (alamarBlue), B16F10; format: cell-based; details: melanoma (BRAF wild-type) cell line, 96 h incubation
Description: as §1
The B16F10 cells (ATCC, CRL-6475) were sown at a concentration of 300-500 cells/well in 100 μl of growth medium (DMEM with phenol red, 10% FCS) on 96-well microtitre plates.
as §2, §3

BRD4 (BD1) = target: T1, BRD4 (BD1) (Homo sapiens, UniProt O60885); experiment: Binding assay BRD4/acetylated peptide H4 (TR-FRET protein-protein interaction assay); details: BRD4 (BD1) / acetylated histone H4 peptide
T1 construct: longer constructs also being possible, preferably amino acids 44-168; made in house; host or cells: E. coli
In short: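 His6-tagged BRD4 BD1 (aa 67-152, E. coli-expressed, typically 10 nM) was used with a biotinylated tetra-acetylated H4 peptide, and compounds at 0.1 nM–20 μM in duplicate. After 10 min preincubation, mixtures were incubated 1 h at 22 °C, then ≥3 h at 4 °C. Read-out was the TR-FRET 665/622 nm ratio (Eu-streptavidin to anti-His-XL665); IC50 from a 4-parameter fit.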

MOLP-8 cells = experiment: Cell proliferation assay (alamarBlue), MOLP-8; format: cell-based; details: multiple myeloma cell line, 120 h incubation
Description: as §1
The MOLP-8 cells (DSMZ, ACC 569) were sown at a concentration of 4000 cells/well in 100 μl of growth medium (RPMI1640, 20% FCS) on 96-well microtitre plates.
as §2, §3

LOX-IMVI cells = experiment: Cell proliferation assay (alamarBlue), LOX IMVI; format: cell-based; details: Homo sapiens, melanoma (BRAF mutated) cell line, 72 h incubation
Description: as §1
The LOX-IMVI cells (NCI-60) were sown at a concentration of 1000 cells/well in 100 μl of growth medium (RPMI1640, 10% FCS) on 96-well microtitre plates.
as §2, with “proliferation). […]” for “proliferation).”

KMS-12-PE cells = experiment: Cell proliferation assay (alamarBlue), KMS-12-PE; format: cell-based; details: Homo sapiens, multiple myeloma cell line, 120 h incubation
Description: as §1
The KMS-12-PE cells (DSMZ, ACC 606) were sown at a concentration of 4000 cells/well in 100 μl of growth medium (RPMI1640, 20% FCS) on 96-well microtitre plates.
as §2, with “proliferation). […]” for “proliferation).”

MDA-MB-231 cells = experiment: Cell proliferation assay (alamarBlue), MDA-MB-231; format: cell-based; details: Homo sapiens, mammary carcinoma cell line, 96 h incubation
Description: as §1, §2, §3

MV4-11 cells = experiment: Cell proliferation assay (alamarBlue), MV4-11; format: cell-based; details: Homo sapiens, acute myeloid leukaemia cell line, 72 h incubation
Description: as §1
The MV4-11 cells (ATCC, CRL 9591) were sown at a concentration of 5000 cells/well in 100 μl of growth medium (RPMI1640, 10% FCS) on 96-well microtitre plates.
as §2, with “proliferation). […]” for “proliferation).”

LAPC-4 cells = experiment: Cell proliferation assay (alamarBlue), LAPC-4; format: cell-based; details: Homo sapiens, LAPC4; prostate cancer cell line, 1 nM methyltrienolone, 168 h incubation
Description: as §1
The LAPC-4 cells (ATCC, PTA-1441TM) were sown at a concentration of 4000 cells/well in 100 μl of growth medium (RPMI1640, 2 mM L-glutamine, 10% cFCS) on 96-well microtitre plates. One day later, the LAPC-4 cells were treated with 1 nM methyltrienolone and various substance dilutions.
as §2, with “For the data analysis, the CI values were subtracted from the CO values and the results were compared between cells which had been treated with various dilutions of the substance or only with buffer solution. This was used to calculate the IC50 values (substance concentration required for 50% inhibition of cell proliferation).” left out

Row | SMILES | pIC50 (MOLM-13 cells; Homo sapiens, MOLM-13) | pIC50 (B16F10 cells; Mus musculus, B16-F10) | pIC50 (BRD4 (BD1)) | pIC50 (MOLP-8 cells; Homo sapiens, MOLP-8) | pIC50 (MOLM-13 cells) | pIC50 (B16F10 cells) | pIC50 (MOLP-8 cells) | pIC50 (LOX-IMVI cells) | pIC50 (KMS-12-PE cells) | pIC50 (MDA-MB-231 cells) | pIC50 (MV4-11 cells) | pIC50 (LAPC-4 cells)
1 | CNC(=O)N1N=C(c2ccc(-c3ccc4c(c3)OCO4)cc2)c2cc(OC)c(OC)cc2CC1C (racemic) [Example 27, (±)-1-[4-(1,3-benzodioxol-5-yl)phenyl]-7,8-dimethoxy-N,4-dimethyl-4,5-dihydro-3H-2,3-benzodiazepine-3-carboxamide] | 6.32 | 6.46 | 6.96 | 6.34 |  |  |  |  |  |  |  | 
2 | CNC(=O)N1N=C(c2ccc(N3CCC4(COC4)C3)cc2)c2cc(OC)c(OC)cc2CC1C (racemic) [Example 29, (±)-7,8-dimethoxy-N,4-dimethyl-1-[4-(2-oxa-6-azaspiro[3.4]oct-6-yl)phenyl]-4,5-dihydro-3H-2,3-benzodiazepine-3-carboxamide] | 6.66 | 7.00 | 7.30 | 7.05 |  |  |  |  |  |  |  | 
3 | CNC(=O)N1N=C(c2ccc(N3CCC4OCCC4C3)cc2)c2cc(OC)c(OC)cc2CC1C (racemic) [Example 36, (±)-1-[4-(hexahydrofuro[3,2-c]pyridin-5(4H)-yl)phenyl]-7,8-dimethoxy-N,4-dimethyl-4,5-dihydro-3H-2,3-benzodiazepine-3-carboxamide] | 6.82 | 7.15 | 7.40 | 7.05 |  |  |  |  |  |  |  | 
4 | CNC(=O)N1N=C(c2ccc(N3CC4(CCC4)C3)cc2)c2cc(OC)c(OC)cc2CC1C (racemic) [Example 37, (±)-1-[4-(2-Azaspiro[3.3]hept-2-yl)phenyl]-7,8-dimethoxy-N,4-dimethyl-4,5-dihydro-3H-2,3-benzodiazepine-3-carboxamide] | 6.38 | 6.38 | 6.77 | 6.35 |  |  |  |  |  |  |  | 
5 | CNC(=O)N1N=C(c2ccc(N3CC4(CN(C)C4)C3)cc2)c2cc(OC)c(OC)cc2CC1C (racemic) [Example 38, (±)-7,8-Dimethoxy-N,4-dimethyl-1-[4-(6-methyl-2,6-diazaspiro[3.3]hept-2-yl)phenyl]-4,5-dihydro-3H-2,3-benzodiazepine-3-carboxamide] | 6.77 | 6.40 | 7.00 | 6.85 |  |  |  |  |  |  |  | 
6 | CNC(=O)N1N=C(c2ccc(N3C[C@@H]4C[C@H]3CN4)cc2)c2cc(OC)c(OC)cc2CC1C (relative stereo) [Example 19, [1S-(1R*,4R*)]-1-[4-(2,5-Diazabicyclo[2.2.1]hept-2-yl)phenyl]-7,8-dimethoxy-4,5-dihydro-N,4-dimethyl-3H-2,3-benzodiazepine-3-carboxamide] | 6.77 | 6.82 | 6.85 | 7.00 |  |  |  |  |  |  |  | 
7 | CNC(=O)N1N=C(c2ccc(F)c(N3C[C@@H]4C[C@H]3CN4)c2)c2cc(OC)c(OC)cc2CC1C (relative stereo) [Example 20, [1S-(1R*,4R*)]-1-[3-(2,5-diazabicyclo[2.2.1]hept-2-yl)-4-fluorophenyl]-7,8-dimethoxy-4,5-dihydro-N,4-dimethyl-3H-2,3-benzodiazepine-3-carboxamide] | 5.97 | 5.84 | 6.39 | 6.11 |  |  |  |  |  |  |  | 
8 | CNC(=O)N1N=C(c2ccc(N3C[C@@H]4C[C@H]3CN4C)cc2)c2cc(OC)c(OC)cc2CC1C (relative stereo) [Example 40, [1S-(1R*,4R*)]-7,8-Dimethoxy-N,4-dimethyl-1-[4-(5-methyl-2,5-diazabicyclo[2.2.1]hept-2-yl)phenyl]-4,5-dihydro-3H-2,3-benzodiazepine-3-carboxamide] | 6.41 | 6.35 | 6.74 | 6.62 |  |  |  |  |  |  |  | 
9 | CNC(=O)N1N=C(c2ccc(N3C[C@@H]4C[C@H]3CN4C)cc2)c2cc(OC)c(OC)cc2C[C@H]1C (relative stereo) [Example 40.1, [1S-[1R*,2(S*),4R*]]-7,8-Dimethoxy-N,4-dimethyl-1-[4-(5-methyl-2,5-diazabicyclo[2.2.1]hept-2-yl)phenyl]-4,5-dihydro-3H-2,3-benzodiazepine-3-carboxamide] |  |  | 7.15 |  | 6.70 | 6.68 | 7.00 |  |  |  |  | 
10 | CNC(=O)N1N=C(c2ccc(F)c(N3C[C@@H]4C[C@H]3CN4C)c2)c2cc(OC)c(OC)cc2CC1C (relative stereo) [Example 41, [1S-(1R*,4R*)]-1-[4-fluoro-3-(5-methyl-2,5-diazabicyclo[2.2.1]hept-2-yl)phenyl]-7,8-dimethoxy-4,5-dihydro-N,4-dimethyl-3H-2,3-benzodiazepine-3-carboxamide] | 5.94 | 5.83 | 6.37 | 6.16 |  |  |  |  |  |  |  | 
11 | CNC(=O)N1N=C(c2ccc(N3CC4(CCS4(=O)=O)C3)cc2)c2cc(OC)c(OC)cc2C[C@@H]1C [Example 3.1, (4S)-1-[4-(1,1-Dioxido-1-thia-6-azaspiro[3.3]hept-6-yl)phenyl]-7,8-dimethoxy-N,4-dimethyl-4,5-dihydro-3H-2,3-benzodiazepine-3-carboxamide] | 7.15 | 7.40 | 7.70 | 7.40 |  |  |  | 6.55 | 7.30 | 7.10 | 7.40 | 7.70
12 | CNC(=O)N1N=C(c2ccc(N3CC4(CN(C(=O)OC(C)(C)C)C4)C3)cc2)c2cc(OC)c(OC)cc2C[C@@H]1C [Example 8.1, tert-butyl 6-{4-[(4S)-7,8-dimethoxy-4-methyl-3-(methylcarbamoyl)-4,5-dihydro-3H-2,3-benzodiazepine-1-yl)phenyl}-2,6-diazaspiro[3.3]heptane-2-carboxylate] | 6.74 | 6.89 | 7.22 | 7.00 |  |  |  |  |  |  |  | 
13 | CNC(=O)N1N=C(c2ccc(N3CC4(CCS4(=O)=O)C3)cc2)c2cc(-n3nc(C)cc3C)ccc2C[C@H]1C [Example 17.1, (4R)-8-(3,5-Dimethyl-1H-pyrazol-1-yl)-1-[4-(1,1-dioxido-1-thia-6-azaspiro[3.3]hept-6-yl)phenyl]-N,4-dimethyl-4,5-dihydro-3H-2,3-benzodiazepine-3-carboxamide] | 5.17 | 5.25 | 5.83 | 5.36 |  |  |  |  |  |  |  | 
14 | CNC(=O)N1N=C(c2ccc(N3CC4(CCS4(=O)=O)C3)cc2)c2cc(-n3nc(C)cc3C)ccc2C[C@@H]1C [Example 17.2, (4S)-8-(3,5-Dimethyl-1H-pyrazol-1-yl)-1-[4-(1,1-dioxido-1-thia-6-azaspiro[3.3]hept-6-yl)phenyl]-N,4-dimethyl-4,5-dihydro-3H-2,3-benzodiazepine-3-carboxamide] | 7.00 | 7.10 | 8.00 | 7.22 |  |  |  |  |  |  |  | 
15 | CNC(=O)N1N=C(c2ccc(N3CC4(CCS4(=O)=O)C3)cc2)c2cc(OC(F)(F)F)ccc2C[C@@H]1C [Example 18.2, (4S)-1-[4-(1,1-dioxido-1-thia-6-azaspiro[3.3]hept-6-yl)phenyl]-N,4-dimethyl-8-(trifluoromethoxy)-4,5-dihydro-3H-2,3-benzodiazepine-3-carboxamide] | 7.52 | 7.52 | 8.00 | 7.52 |  |  |  |  |  |  |  | 
